The values that follow come from patent US7160894B2, “Tricyclic compound” (Asahi Kasei Pharma Corporation, priority 2003, dated 2007).

In test [1] the test system is ovalbumin-induced constriction of respiratory tract. The test can be described thus: Respiratory tract constriction suppressing action, intravenous administration (Test Example 3). It counts as in vivo, Hartley guinea pigs. Particulars: ovalbumin-immunized guinea pigs, administered from cannula in hind leg vein, measured for 15 minutes. The procedure:
Four-week old Hartley guinea pigs (male) were immunized by intraperitoneal administration of ovalbumin (Sigma, Grade V) in amounts of 1 mg for each animal on the day on which the experiment was started, 3 mg for each animal after 2 days, and 10 mg for each animal after 4 days. Twelve to fourteen days after the final immunization, the ovalbumin-immunized guinea pigs were anesthetized by intraperitoneal administration of about 40 mg/kg of pentobarbital (Somnopentyl), and the tracheas were taken out. Subsequently, a cannula (SP-110, Natsume) was inserted into each trachea, and one end of the cannula was connected to an artificial respirator (Model-b83, Harvard). The aeration conditions were set at 6 ml per kilogram and 60 times per 1 minute. Further, a cannula for medicament administration (JMS wing needle 23G 3/4) was inserted into a hind leg vein. Myoblock (Organon Technica) was administered in an amount of 0.5 mg/kg from the cannula inserted into the hind leg vein to stop the spontaneous breathing, and after 2 or 3 minutes, 0.3 mg/kg of ovalbumin was administered to induce constriction of respiratory tract. The increase of airway resistance value 2 minutes after the induction (measurement apparatuses: pressure transducer TR-603T, respiratory amplifier AR-601G, and recorder RTA-3100, Nihon Kohden Corp.) was confirmed to be above 80 cm H2O or higher, and then, a solution of a test medicament was administered from the cannula inserted into the hind leg vein, and the airway resistance value was continuously measured for 15 minutes after the administration to determine the effect.

Test [2] has the same test system. Kind of test: Respiratory tract constriction suppressing action, administration by inhalation (Test Example 3). Format: in vivo, Hartley guinea pigs. Particulars: ovalbumin-immunized guinea pigs, 2 ml solution by inhalation over 5 minutes. As for the experimental part: Four-week old Hartley guinea pigs (male) were immunized by intraperitoneal administration of ovalbumin (Sigma, Grade V) in amounts of 1 mg for each animal on the day on which the experiment was started, 3 mg for each animal after 2 days, and 10 mg for each animal after 4 days. Further, the respiratory tract constriction suppression action of the test compounds was also evaluated by inhalation. Twelve to fourteen days after the final sensitization, 10 mg/kg of pyrilamine (Sigma), 5 mg/kg of indomethacin (Wako), or 0.1 mg/kg of propranolol (Sigma) was intraperitoneally administered. Then, 30 minutes after the administration, a 0.1% ovalbumin aqueous solution was inhaled by using a pressurization type nebulizer (PARI-IS2) to induce constriction of the respiratory tract. Ten minutes after the induction, 2 ml of a solution of a test compound prepared at various concentrations was filled in the aforementioned nebulizer, and administered by inhalation over 5 minutes. After the administration of pyrilamine and other drugs, airway resistance value was continuously measured to determine effectiveness.

The next test relates to intraocular pressure. Kind of test: Intraocular pressure reducing action (Test Example 4). It counts as in vivo, Japanese white rabbit. Particulars: rabbit, 50 μl of aqueous solution dropped to the left eye. The procedure: A Japanese white rabbit having a body weight of about 2 kg was placed in a positioner and naturalized for one week before the experiment. An ophthalmologic local anesthesant (Benoxil) was administered to the left eye, and then intraocular pressure was measured by using a tonometer (Classic 30, Solan). The initial value of the intraocular pressure was measured, then 50 μl of an aqueous solution of a test compound was dropped to the left eye at various concentrations, and the intraocular pressure was measured with passage of time.

In test [3] the test system is thoracic aorta constricted with phenylephrine. The test can be described thus: Vasoconstriction inhibitory action (Test Example 2). More on the design: species or system Rats (Wistar). Conditions: test compound 1 μM; rat thoracic aorta constricted with phenylephrine 1 μM. The text has this:
Rats (Wistar, 11-week old) were bleeded to death and laparotomized to take out the thoracic aorta. That aorta was cut into a ring of a length of about 3 mm in a conventional manner (Asano, T., et al., J. Pharmacol. Exp. Ther., 241, pp. 1033–1040 (1987)) and hung in 10-ml organ bath filled with Krebs-Hensright nutrient solution bubbled with a mixed gas of 95% O2 and 5% CO2. One end of the blood vessel was connected to an isometric transducer (FD Pickup TB-912T, Nihon Kohden) and applied with 2.5 g of resting tension, and constriction and relaxation reactions of the aorta were recorded.
The aorta was constricted with phenylephrine (1 μM, Sigma) and then added with a test compound (1 μM), and the vasoconstriction inhibitory action thereof was observed. The vasoconstriction inhibitory actions of the test compounds were calculated as relaxation ratios, which were based on the vasoconstriction with phenylephrine observed immediately before the addition of the test compounds taken as 100%.

Test [4] has as its system cerebral hippocampal neurons. The test can be described thus: Neurite outgrowth action (Test Example 5). Conditions: rat hippocampal neurons, 24 hours after addition. It counts as cell-based, Sprague-Dawley rats. As for the experimental part:
From 18 day-old Sprague-Dawley rats, cerebral hippocampal neurons were prepared according to the method of Neuman et al. (Neuman, H. R. et al., J. Neurosci., 22, pp. 854–862, 2002). The prepared neurons were cultured for 24 hours according to the method of Tanaka et al. (Tanaka, H. et al., J. Cell Biol., 158 (2), pp. 321–329, 2002), then the medium was exchanged with fresh medium, and test medicaments of various concentrations or equivalent amounts of vehicle were added. Twenty-four hours after the addition of the medicaments, neurite length of each neuron was measured for the medicament-added group and the no-addition group, and compared. The neurite length was evaluated according to the method of Neuman et al. (Neuman, H. R. et al., J. Neurosci., 22, pp. 854–862, 2002).

Test [5] has as its system phosphorylated myosin regulatory light chain in neutrophils. Kind of test: Action on amount of phosphorylated myosin regulatory light chain in the cells (Test Example 1). Particulars: Neutrophil, 5 min; human neutrophils, reaction at 25° C. for 5 minutes; read-out: concentration at which the phosphorylation of myosin regulatory light chain is inhibited (IC50). Format: cell-based. The procedure:
A volume of 50 to 100 ml of peripheral blood collected from healthy volunteers was centrifuged by using Mono-Poly separator solution (Dainippon Pharmaceutical) to prepare a neutrophil containing fraction. The neutrophils were washed with PBS(−) and resuspended in Hanks' Balanced Salt Solution (HBSS+, Gibco) to prepare a cell suspension (8×10^6/ml). The cell suspension was diluted to 5×10^6/ml, introduced into Eppendorf tubes in a volume of 0.4 ml each, then 0.1 ml each of solutions of a test compound at various concentrations were added to the suspension and allowed to react at 25° C. for 5 minutes. After the reaction, 0.1 ml of trichloroacetic acid solution was added to each reaction, the reaction mixture was gently shaken and centrifuged at 12,000 rpm (4° C., 5 minutes), and the supernatant was removed. Subsequently, 3 μl of 1 M Tris solution was added to the residue, the mixture was further mixed with 50 μl of extraction buffer (8 M urea, 0.02% 2-mercaptoethanol, 0.002% bromophenol blue) and left stand at room temperature for 1 hour. Then, the reaction mixture was loaded on a spin column (0.45 μm, Millipore) to remove the insoluble solids and a sample buffer for SDS polyacrylamide gel electrophoresis (25 mM, Tris-HCl pH 6.8, 2.5% 2-mercaptoethanol, 2% sodium dodecylsulfate, 5% sucrose, 0.002% bromophenol blue as final concentrations) was added, and 10 μl of each sample was subjected to electrophoresis.
The gel after the electrophoresis was blotted on a nitrocellulose membrane (BioRad), blocked with 5% skim milk, and reacted successively with antibodies pLC1 (Sakurada K. et al, Am. J. Physiol., 274, C1563–C1572 (1998)), which specifically recognize the phosphorylated myosin regulatory light chain, and donkey anti-mouse IgG (Chemicon) conjugated with horseradish peroxidase. The band of the phosphorylated myosin regulatory light chain was detected on a film by using ECL Plus Kit (Amersham Pharmacia Biotech). This band was subjected to quantification using a densitometer. By using this value, the inhibitory ratio (%) for phosphorylation of the myosin regulatory light chain was calculated by using the following equation. Phosphorylation inhibition ratio (%)=1−(Band intensity of phosphorylated myosin regulatory light chain with addition of the test compound/Band intensity of phosphorylated myosin regulatory light chain without addition of the test compound)×100
Further, the phosphorylation inhibition ratio was calculated with changing the concentrations of the test compound, and a compound concentration providing an inhibition ratio of 50% was obtained as IC50.

For the next test, the system named is neutrophils. Kind of test: Neutrophil migration inhibitory action, Boyden Chamber, FMLP (Test Example 6). Format: cell-based. Conditions: 0.5 h, human neutrophils, FMLP 1 μM, 37° C., 30 minutes, read-out: concentration at which the migration of neutrophils is inhibited (IC50). The procedure:
Neutrophils were isolated from 50 to 100 ml of peripheral blood collected from healthy human donors by the method described in Test Example 1 to obtain a cell suspension (8×10^6/ml). Subsequently, solutions of a test compound at various concentrations were introduced into wells of a 96-well plate in a volume of 125 μl per well, the cell suspension of an equivalent volume was added to it and the plate was preincubated at room temperature for 5 minutes. During the preincubation, FMLP (1 μM, Sigma) solution was added to the lower chamber to set Boyden Chamber, the preincubated cell suspension was added to the upper chamber in a volume of 200 μl per well, and the cells were allowed to migrate at 37° C. under 5% carbon dioxide for 30 minutes. The filter after the migration was collected, and the non-migrated cells adhered to the surface that faced the upper chamber were carefully wiped off. Then, the migrated cells on the back surface were stained with DifQuick dye solution (International Reagents), washed with water and dried, and then absorbance was measured at 595 nm. The inhibition ratio against migration (%) of a test compound was calculated by using the following equation: Migration inhibition ratio (%)=(1−Absorbance of the group with addition of test compound/Absorbance of the group without addition of test compound)×100
Further, the migration inhibitory ratio was calculated with changing the test compound concentration, and a compound concentration providing an inhibition ratio of 50% was obtained as IC50. The compounds of the present invention obtained in Examples 1, 11, 12, 13, 14, 15, 16, 18, 19, 20, 21, 22, 24, 31, 41, 42, 47, 52, 53, 54, 55, 56, 57, 58, 59, 60, 62, 63, 64, 65, 66, 67, 68, 72, 73, 74, 75, 76, 77, 78, 79, 80, 81, 82, 83, 84, 87, 88, 89, 90, and 91 inhibited the migration of neutrophils at a concentration of 40 μM or less, and further, the compounds of Examples 1, 11, 12, 13, 14, 15, 19, 21, 22, 24, 31, and 41 inhibited the migration of neutrophils at a concentration of 10 μM or less. Further, trans-benzyl-[4-(2,3-dihydro-1,5-diazaphenalen-1-yl)cyclohexyl]amine inhibited the migration of neutrophils at a concentration of 40 μM or less.

Regarding `Cl.c1cc2c3c(cncc3c1)CCN2C1CCNCC1` [Example 11], the “improvement of constriction of respiratory tract (airway resistance value)” value (from here on “improvement”) in test [1] and in test [2] was “significantly improved the constriction of respiratory tract” throughout. Moreover, the “intraocular pressure reducing action” value in the test on intraocular pressure is given as “significant intraocular pressure reducing action”.

With `Cl.NCCN1CCC(N2CCc3cncc4cccc2c34)CC1` [Example 14], the “improvement” value in test [1] and in test [2] was “significantly improved the constriction of respiratory tract” each time. In addition, the “intraocular pressure reducing action” value in the test on intraocular pressure is listed as “significant intraocular pressure reducing action”.

In the case of `Cl.NCCCN1CCC(N2CCc3cncc4cccc2c34)CC1` [Example 15], the “improvement” value in test [1] and in test [2] was “significantly improved the constriction of respiratory tract” in each case. Moreover, in the test with intraocular pressure, the “intraocular pressure reducing action” value is given as “significant intraocular pressure reducing action”.

For the compound `Cl.O=C(O)CCN1CCC(N2CCc3cncc4cccc2c34)CC1` [Example 16], the “vasoconstriction inhibitory action (relaxation ratio)” value in test [3] is on record as “significant vasoconstriction inhibitory action”. For the same compound, the “intraocular pressure reducing action” value with intraocular pressure is given as “significant intraocular pressure reducing action”. Also, the “neurite outgrowth (neurite length)” value in test [4] is recorded as “significant neurite outgrowth axis extension”.

Regarding `CC(=O)NCCN1CCC(N2CCc3cncc4cccc2c34)CC1` [Example 42], the IC50 (in test [5]; in the test with neutrophils) was not above 40 µM each time. In addition, the “intraocular pressure reducing action” value in the test on intraocular pressure is recorded as “significant intraocular pressure reducing action”.

Consider `CN(C)[C@H]1CC[C@H](N2CCc3cncc4cccc2c34)CC1` [Example 53, trans-[4-(2,3-dihydro-1,5-diazaphenalen-1-yl)cyclohexyl]dimethylamine], for which the IC50 (in test [5]; in the test on neutrophils) was not above 40 µM throughout. The “intraocular pressure reducing action” value in the test with intraocular pressure is listed as “significant intraocular pressure reducing action”.

Consider `Clc1ncc2c3c(cccc13)N(C1CCNCC1)CC2` [Example 61, 6-Chloro-1-(piperidin-4-yl)-2,3-dihydro-1H-1,5-diazaphenalene], for which the IC50 in test [5] was not above 40 µM.

For the compound `CCCC(=O)NCCN[C@H]1CC[C@H](N2CCc3cnc(O)c4cccc2c34)CC1.Cl` [Example 84], the “intraocular pressure reducing action” value in the test with intraocular pressure is “significant intraocular pressure reducing action”.

Regarding `CC(=O)NCCCN[C@H]1CC[C@H](N2CCc3cnc(O)c4cccc2c34)CC1.Cl` [Example 87], in the test with intraocular pressure, the “intraocular pressure reducing action” value is “significant intraocular pressure reducing action”.

Regarding `CCC(=O)NCCCN[C@H]1CC[C@H](N2CCc3cnc(O)c4cccc2c34)CC1.Cl` [Example 88], the “intraocular pressure reducing action” value in the test with intraocular pressure is recorded as “significant intraocular pressure reducing action”.

Consider `c1ccc(CN[C@H]2CC[C@H](N3CCc4cncc5cccc3c45)CC2)cc1` [trans-benzyl-[4-(2,3-dihydro-1,5-diazaphenalen-1-yl)cyclohexyl]amine], for which the IC50 (in test [5]; in the test with neutrophils) was not above 40 µM in each case.
